Measured values as given in patent US7850984B2, “Protection of the female reproductive system from natural and artificial insults” (The General Hospital Corporation, priority 2000, dated 2010).
Entries after “also recorded” stand apart in the source; their conditions may differ.

Legend:
[1] = test system: ovaries (oocyte-containing follicles); experiment: S1P protection against radiation in vivo, histomorphometric count of non-atretic oocyte-containing follicles; set-up: species or system mouse
Procedure: The serial sections from each ovary are aligned in order on glass microscope slides, stained with hematoxylin/picric methyl blue, and analyzed for the number of healthy (non-atretic) oocyte-containing primordial, primary and small preantral follicles as described by Perez et al. Nat. Genet.
Young adult (postpartum day 40) wild-type female mice are anesthetized, and dorsal incisions are made to retrieve and expose the ovaries. Five μl of vehicle (PET) are injected into the bursa of one ovary of the pair while 5 μl of a stock of either 0.5 or 2 mM S1P, prepared in PET, are injected into the bursa of the contralateral ovary. Based on an estimated bursal cavity volume of 50 μl, the final concentrations of S1P in the bursal cavity for ovarian exposure following administration of the 0.5 and 2 mM stocks are approximately 50 and 200 μM, respectively. The ovaries are returned to the peritoneal cavity, the incisions are sutured, and the mice are allowed to recover for a 2 hour pretreatment period prior to a single exposure to 0.1 Gy of abdominally-directed ionizing radiation.

oocytes = details: mouse oocytes cultured with S1P before doxorubicin exposure; Perez et al. (1997); cited from earlier work
C57BL/6J female mice = experiment: Mating trials of irradiated female mice; assay type: in vivo, mouse
Procedure: Eight-week old C57BL/6J female mice (Jackson Laboratories) are anesthetized by intraperitoneal injection of Avertin (30 μl of a 1.25% stock solution per gram of body weight; Aldrich Chemical Co.), and dorsal incisions are made to retrieve and expose the ovaries. Five μl of vehicle (5% polyethylene glycol, 2.5% ethanol, and 0.8% Tween-80, or PET) or of a stock of 2 mM S1P (BIOMOL) prepared in PET are injected into the bursa surrounding each ovary (see Example 10). Based on an estimated bursal cavity volume of 50 μl, the final concentration of S1P following this procedure is 200 μM. The ovaries are returned to the peritoneal cavity, the incisions are sutured, and the mice are allowed to recover for a 2-h pre-treatment period. Mice are then given a single dose of 0.05 or 0.1 Gy of abdominally directed ionizing radiation, using a cesium^137 source (Shepherd Mar-I, Model 68) at a dose rate of 0.7 Gy min^−1.
To evaluate whether the acute protection of oocytes by S1P also results in long-term preservation of ovarian function and fertility, mating trials are initiated 2 months after irradiation. For these studies, 8-week old C57BL/6J female mice are given intrabursal injections of vehicle or a maximally effective dose of S1P (0.2 mM final concentration in the bursal cavity) two hours before exposure to 0.1 Gy of ionizing radiation, delivered as a single dose. […] Females, irradiated without or with S1P pre-treatment, are then mated with non-irradiated C57BL/6J males beginning 2 months post-irradiation. The F0 females are caged with adult (2-4 month old) wild type C57BL/6J males for 15 d. As a control to assure the fertility of the males, each is mated to a female of proven fertility. After delivery, pups of first time mothers are fostered while pups of subsequent litters are maintained with their natural mothers. […] The F0 female mice are bred again with a new wild type male two weeks after the pups are weaned, and the process is repeated for a total of 4 matings.
It is next examined whether preservation of ovarian function and fertility might result in propagation of genomic damage to the F2 progeny. To generate F2 offspring, F1 males and females are each bred at 2 months of age with adult (2-4 month old) wild type C57BL/6J females or males, respectively (see FIG. 6 for details).

F0 oocytes = experiment: DNA damage in F0 oocytes scored at diakinesis/metaphase I; assay type: in vivo, mouse
[2] = test system: germ cells of wild-type fetal ovaries (e13.5); experiment: Fetal ovary culture without hormonal support, germ cell survival; assay type: cell-based, mouse
Procedure: To determine the basis of the extensive oocyte hyperplasia in ASMase −/− neonates, fetal ovaries are harvested from wild-type and mutant mice at embryonic day 13.5 (e13.5) for in vitro culture as a model to recapitulate the events surrounding germline death that occurs as a normal component of female gametogenesis. A time-dependent activation of programmed cell death is observed in the germline of wild-type fetal ovaries cultured without hormonal support for up to 72 hours (FIG. 2A). […] These findings indicate that there exists an ovarian-intrinsic cell death defect in the ASMase-deficient mouse, and point to enhanced survival of the developing germline during oogenesis as the mechanism underlying the enlarged oocyte pool seen in mutant females at birth.
Equivalent levels of in vitro germ cell survival are obtained by either ASMase gene knockout (FIG. 2A) or by S1P treatment (FIG. 2B).

[3] = test system: polychromatic erythrocytes of F0, F1 and F2 mice; experiment: Micronuclei assay in polychromatic erythrocytes of tail blood; assay type: in vivo, mouse
Text: To evaluate the possibility of transgenerational transmission of DNA damage, the frequency of micronuclei is used as a sensitive indicator of the extent of propagated genomic damage (Trott, K. R., Jamali, M., Manti, L. & Teibe, A. Manifestations and mechanisms of radiation-induced genomic instability in V-79 Chinese hamster cells. Int. J. Radiat. Biol. 74, 787-791 (1998); Manti, L., Jamali, M., Prise, K. M., Michael B. D. & Trott, K. R. Genomic instability in Chinese hamster ovary cells after exposure to X rays or alpha particles of different mean energy transfer. Radiat. Res. 147, 22-28 (1997)). Tail blood samples from 16-18 month old non-irradiated, vehicle-treated and irradiated, or S1P-treated and irradiated F0 mice, 16-18 month old F1 mice, or 12-16 month old F2 mice, are smeared onto glass microscope slides coated with acridine orange (Shinko Corporation, New York, N.Y.), and coded prior to analysis. The frequency of micronuclei is then assessed in the 10^3 polychromatic erythrocytes by flourescence microscopy (Hayashi, M., Morita, T., Kodama, Y., Sofuni, T., & Ishidate, M., Jr. The micronucleus assay with mouse peripheral blood reticulocytes using acridine orange-coated slides. Mutat. Res. 245, 245-249 (1990)), after which the slides are decoded for data interpretation.

[4] = test system: ovaries (oocyte-containing follicles); details: Morita et al., Nat. Med. 6 (2000); cited from earlier work

CCCCCCCCCCCCC/C=C/[C@@H](O)[C@@H](N)COP(=O)(O)O [S1P, sphingosine-1-phosphate]
preservation of the germ cell reserve ([1]; S1P approx. 50 and 200 μM intrabursal, two hours before 0.1 Gy, ovaries two weeks later): significant and dose-dependent preservation of the germ cell reserve
side effects on the ovaries ([1]; general statement): safe and without side effects on the ovaries
protection of follicle populations after irradiation ([1]; highest dose of S1P (200 μM in bursal cavity), two hours before 0.1 Gy, two weeks post-irradiation): complete protection of the quiescent (primordial) and growing (primary, preantral) follicle populations; also recorded: retain a completely normal distribution of oocyte-containing follicles at all stages of development; also recorded: indistinguishable from non-irradiated controls; also recorded: Complete protection of the female germline from radiation-induced death
number of follicles at any stage of development versus vehicle-treated ovaries ([1]; in the absence of irradiation, intrabursal S1P): does not significantly differ
protection of oocytes from doxorubicin-induced death in vitro (oocytes): protected the oocytes from death induced by subsequent doxorubicin exposure for up to 24 hours
irradiated females remaining fertile after one year (C57BL/6J female mice; 200 μM S1P before 0.1 Gy, fourth mating trial, P<0.001 vs. vehicle-treated irradiated females): 75%
irradiated females delivering litters, first mating trial (C57BL/6J female mice; 200 μM S1P before 0.1 Gy, mating 2 months post-irradiation, n=8): all
litter size (C57BL/6J female mice; S1P-treated irradiated group (0.1 Gy), average): 6.1±0.4 pups per mating
frequency of rejection of pups by irradiated mothers (C57BL/6J female mice; mothers treated or not with S1P): no increase in the frequency of rejection of pups
phenotypic or behavioral abnormalities in F2 offspring (C57BL/6J female mice; second generation): no gross phenotypic or behavioral abnormalities
phenotypic or behavioral abnormalities in F1 offspring (C57BL/6J female mice; up to 18 months of age): No phenotypic or behavioral abnormalities
Oocytes with Breaks/Crosstalk (% of total) (F0 oocytes; 0.05 Gy + S1P): 16.4%
Average Oocytes/o (mean ± SEM) (F0 oocytes; 0.05 Gy + S1P (200 μM intrabursal), 8 weeks after irradiation, n=8): 30.8 ± 3.9
Oocytes with Breaks/Crosstalk, number (F0 oocytes; 0.05 Gy + S1P, of 110 total scorable oocytes): 18
Oocytes with Breaks/Crosstalk (% of total) (F0 oocytes; 0.1 Gy + S1P): 27.6%
Oocytes with Breaks/Crosstalk, number (F0 oocytes; 0.1 Gy + S1P, of 86 total scorable oocytes): 24
percentage of oocyte population manifesting DNA damage versus vehicle-treated irradiated mice (F0 oocytes; S1P-treated irradiated females): no increase in the percentage of the oocyte population manifesting DNA damage
share of starting population of germ cells preserved ([2]; after 72 hours of hormone deprivation, versus 0 h): Over one-half of the starting population of germ cells (0 h or Time 0) is preserved
germ cell survival / germ cell apoptosis in cultured fetal ovaries ([2]; wild-type fetal ovaries, 72 hours in vitro without hormonal support, FB1 5-500 μM, S1P increasing concentrations): the reduced incidence of germ cell apoptosis conveyed by ASMase-deficiency is recapitulated
frequency of micronuclei in F0 animals versus non-irradiated controls ([3]; 0.1 Gy, S1P-treated, statistically significant (P<0.01)): small increase in the frequency of micronuclei over non-irradiated controls
frequency of micronuclei, vehicle-treated versus S1P-treated irradiated mice ([3]; F0, 0.1 Gy): no significant difference in the frequency of micronuclei
protection of oocyte population from apoptotic death following radiotherapy [4]: essentially protects the entire oocyte population from apoptotic death
